Assay results from patent publication US8263095B2, “Methods of use for peptides having activities of insulin like growth factor-1” (Caregen Co., Ltd., priority 2006, dated 2012).
Bridge positions count the residues as written; N and C are the ends. Ends that are not written are not given here. * marks the point of attachment. FITC = O=C1OC2(c3ccc(O)cc3Oc3cc(O)ccc32)c2ccc(NC(=S)*)cc21; βAla = NCCC(=O)O

System: receptors on surface of 3T3 fibroblasts
Test: Binding of fluorescence-labeled peptide to receptors on fibroblasts
Settings: 1 mg/ml, 1 hr incubation, fluorescence and optical microscopy
Procedure: 3T3 fibroblasts were cultured in 250 ml-flasks containing EMEM (Eagle's minimal essential media, Gibco, U.S.A.) supplemented with […] FBS (fetal bovine serum). After 48-hr culture, the supernatant of the medium was discarded and the remainder was washed once with PBS (phosphate buffered saline). FITC-b-Ala-CDLRRLEMYC prepared in Preparation Example 4 was dissolved in DMSO and PBS to a concentration of 1 mg/ml and incubated for 1 hr with cells cultured. After removing medium, cells were completely washed and their surface was observed under fluorescence and optical microscopes.

## FITC-b-Ala-Cys-Asp-Leu-Arg-Arg-Leu-Glu-Met-Tyr-Cys ({FITC-βAla}-CDLRRLEMYC; disulfide 1-10) [FITC-labeled peptide]
  binding of the FITC-labeled peptide to receptors on cell (FIG. 12): binds to receptors on surface of fibroblasts
